For six compounds, LD99 results are on record in ChEMBL document CHEMBL1148926, “Blanchaquinone: a new anthraquinone from an Australian Streptomyces sp” (2004).

This assay concerns Bacillus subtilis. The experiment in a line: Antibacterial activity against Bacillus subtilis ATCC 6633 after 24 hrs by microtiter plate assay. Type of assay: functional.
With `CC[C@@]1(O)C[C@H](O)c2c(O)c3c(c(O)c2[C@H]1C(=O)OC)C(=O)c1cccc(O)c1C3=O`, the LD99 is 0.8 µg/mL.
Compound `CCc1ccc2c(O)c3c(c(O)c2c1)C(=O)c1cccc(O)c1C3=O` showed an LD99 of 13 µg/mL.
`COC(=O)Cc1cc2c(c(O)c1C(C)=O)C(=O)c1c(O)cccc1C2=O` displayed an LD99 of 3 µg/mL.
The same measure for `COC(=O)[C@@H]1c2c(O)c3c(c(O)c2[C@@H](O)C[C@@]1(C)O)C(=O)c1c(O)cccc1C3=O`: 6 µg/mL.
The same measure for `COC(=O)[C@@H]1c2c(O)c3c(c(O)c2[C@@H](O)C[C@]1(O)CC(C)=O)C(=O)c1c(O)cccc1C3=O`: 13 µg/mL.
`CCCCC(=O)c1c(CC(=O)OC)cc2c(c1O)C(=O)c1c(O)cccc1C2=O` [BLANCHAQUINONE] gave an LD99 of 6 µg/mL.
